From patent publication US20230234943A1, “TREX1 INHIBITORS AND USES THEREOF” (Tempest Therapeutics, Inc., priority 2020, published 2023)

Target: T1, Human TREX1 enzyme (amino acids 1-242) (Homo sapiens, UniProt Q9NSU2)
T1 construct: Human TREX1 enzyme (amino acids 1-242)
T1 sequence (Q9NSU2 1-242): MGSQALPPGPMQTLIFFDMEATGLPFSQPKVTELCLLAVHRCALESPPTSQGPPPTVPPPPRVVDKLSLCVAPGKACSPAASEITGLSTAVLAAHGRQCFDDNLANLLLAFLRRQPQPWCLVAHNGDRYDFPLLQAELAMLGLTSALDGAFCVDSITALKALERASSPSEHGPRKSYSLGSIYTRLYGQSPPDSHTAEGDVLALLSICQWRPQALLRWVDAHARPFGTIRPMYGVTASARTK
Experiment: Human TREX1 enzymatic assay with dsDNA native oligonucleotide (Picogreen fluorescence)
Format: biochemical
Conditions: 2 mM dithiothreitol in assay buffer; 50 nM dsDNA oligonucleotide; 30 min preincubation at 25° C.; read-out: TREX1/Human + DTT IC50 AVG
How it was run: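 TREX1 (0.8–0.16 nM final) preincubated with compound (300 μM–13 nM or 30 μM–1.5 nM, 2% DMSO) 30 min at 25 °C in Tris pH 7.7, 5 mM MgCl2, 2 mM DTT. Annealed dsDNA (50 nM) added for 5–15 min at 25 °C; EDTA quench with Picogreen fluorescence readout.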

| IC50 [µM] | Compound |
| --- | --- |
| ≤ 0.1 | COc1cc(-c2nc3ccc(-c4ncno4)cc3n2C2(C)COC2)c(F)c(O)c1O [Example 181, 3-fluoro-6-methoxy-4-[1-(3-methyloxetan-3-yl)-6-(1,2,4-oxadiazol-5-yl)-1H-1,3-benzodiazol-2-yl] benzene-1,2-diol] |
| 0.1 to 1 | COc1cc(-c2nc3ccc(-c4ccccn4)cc3n2C2(C)COC2)c(F)c(O)c1O [Example 182, 3-fluoro-6-methoxy-4-[1-(3-methyloxetan-3-yl)-6-(pyridin-2-yl)-1H-1,3-benzodiazol-2-yl]benzene-1,2-diol] |
| 10 to 100 | COc1cc(-c2nc3cc(O)ccc3[nH]2)c(C)c(O)c1O [Example 183, 4-(5-hydroxy-1H-1,3-benzodiazol-2-yl)-6-methoxy-3-methylbenzene-1,2-diol] |
| ≤ 0.1 | COc1cc(-c2nc3ccc(-n4cccn4)cc3n2C2(C)COC2)c(F)c(O)c1O [Example 184, 3-fluoro-6-methoxy-4-[1-(3-methyloxetan-3-yl)-6-(1H-pyrazol-1-yl)-1H-1,3-benzodiazol-2-yl]benzene-1,2-diol] |
| 1 to 10 | COc1cc(-c2nc3ccc(C(C)(C)O)cc3n2C2(C)COC2)c(F)c(O)c1O [Example 185, 3-fluoro-4-[6-(2-hydroxypropan-2-yl)-1-(3-methyloxetan-3-yl)-1H-1,3-benzodiazol-2-yl]-6-methoxybenzene-1,2-diol] |
| 1 to 10 | CNCc1ccc2nc(-c3cc(OC)c(O)c(O)c3F)n(C3(C)COC3)c2c1 [Example 186, 3-fluoro-6-methoxy-4-(6-((methylamino)methyl)-1-(3-methyloxetan-3-yl)-1H-benzo[d]imidazol-2-yl)benzene-1,2-diol] |
| 1 to 10 | COc1cc(-c2nc3cc(N4CCC4)ccc3n2C2COC2)c(C)c(O)c1O [Example 187, 4-(5-(azetidin-1-yl)-1-(oxetan-3-yl)-1H-benzo[d]imidazol-2-yl)-6-methoxy-3-methylbenzene-1,2-diol] |
| 1 to 10 | COc1cc(-c2nc3cc(N4CCC4)ccc3n2C2COC2)c(F)c(O)c1O [Example 188, 4-(5-(azetidin-1-yl)-1-(oxetan-3-yl)-1H-benzo[d]imidazol-2-yl)-3-fluoro-6-methoxybenzene-1,2-diol] |
| 1 to 10 | COc1cc(-c2nc3cc(N4CCC4)ccc3[nH]2)c(C)c(O)c1O [Example 189, 4-(5-(azetidin-1-yl)-1H-benzo[d]imidazol-2-yl)-6-methoxy-3-methylbenzene-1,2-diol] |
| 0.1 to 1 | COc1cc(-c2nc3cc(N4CCCC4=O)ccc3n2C2(C)COC2)c(F)c(O)c1O [Example 190, 1-[2-(2-fluoro-3,4-dihydroxy-5-methoxyphenyl)-1-(3-methyloxetan-3-yl)-1H-1,3-benzodiazol-5-yl]pyrrolidin-2-one] |
| 10 to 100 | COc1cc(-c2nc3cc(N4CCCC4=O)ccc3n2C2COC2)c(F)c(O)c1O [Example 191, 1-(2-(2-fluoro-3,4-dihydroxy-5-methoxyphenyl)-1-(oxetan-3-yl)-1H-benzo[d]imidazol-5-yl)pyrrolidin-2-one] |
| ≤ 0.1 | COc1cc(-c2nc3cc(Nc4ccccc4)ccc3n2C2(C)COC2)c(F)c(O)c1O [Example 192, 3-fluoro-6-methoxy-4-[1-(3-methyloxetan-3-yl)-5-(phenylamino)-1H-1,3-benzodiazol-2-yl]benzene-1,2-diol] |
| 0.1 to 1 | COc1cc(-c2nc3cc(N4CCC4)ccc3n2C2CCC2)c(C)c(O)c1O [Example 193] |
| ≤ 0.1 | COc1cc(-c2nc3ccc(-c4cn[nH]c4)cc3n2C2(C)COC2)c(F)c(O)c1O [Example 194] |
| 0.1 to 1 | COc1cc(-c2nc3cc(N(C)C(C)=O)ccc3n2C2(C)COC2)c(F)c(O)c1O [Example 195] |
| > 100 | COC(=O)c1cc(-c2nc3cc(N4CCC4)ccc3[nH]2)cc(OC)c1O [Example 196, methyl 5˜(5-(azetidin-1-yl)-1H-benzo[d]imidazol-2-yl)-2-hydroxy-3-methoxybenzoate] |
| 0.1 to 1 | COc1cc(-c2nc3cc(N4CCN(C)C4=O)ccc3n2C2(C)COC2)c(F)c(O)c1O [Example 197, 1-(2-(2-fluoro-3,4-dihydroxy-5-methoxyphenyl)-1-(3-methyloxetan-3-yl)-1H-benzo[d]imidazol-5-yl)-3-methylimidazolidin-2-one] |
| ≤ 0.1 | COc1cc(-c2nc3cc(N4CCNC4=O)ccc3n2C2(C)COC2)c(F)c(O)c1O [Example 198, 1-(2-(2-fluoro-3,4-dihydroxy-5-methoxyphenyl)-1-(3-methyloxetan-3-yl)-1H-benzo[d]imidazol-5-yl)imidazolidin-2-one] |
| 1 to 10 | COc1c(C)c(-c2nc3cc(N4CCC4)ccc3n2C2COC2)c(F)c(O)c1O [Example 199, 4-[5-(azetidin-1-yl)-1-(oxetan-3-yl)-1H-1,3-benzodiazol-2-yl]-3-fluoro-6-methoxy-5-methylbenzene-1,2-diol] |
| 1 to 10 | COc1c(C)c(-c2nc3cc(N4CCC4)ccc3n2C2CCC2)c(F)c(O)c1O [Example 200, 4-[5-(azetidin-1-yl)-1-cyclobutyl-1H-1,3-benzodiazol-2-yl]-3-fluoro-6-methoxy-5-methylbenzene-1,2-diol] |
| 10 to 100 | COc1c(C)c(-c2nc3ccccc3n2C2(C)COC2)cc(O)c1O [Example 201, 3-methoxy-4-methyl-5-[1-(3-methyloxetan-3-yl)-1H-1,3-benzodiazol-2-yl]benzene-1,2-diol] |
| > 100 | COc1cc(-c2nc3c(Cl)c(Cl)ccc3[nH]2)c(F)c(O)c1O [Example 202, 4-(6,7-dichloro-1H/benzo[d]imidazol-2-yl)-3-fluoro-6-methoxybenzene-1,2-diol] |
| ≤ 0.1 | COc1cc(-c2nc3cc(NC(=O)c4ccccn4)ccc3n2C2(C)COC2)c(F)c(O)c1O [Example 203, N-[2-(2-fluoro-3,4-dihydroxy-5-methoxyphenyl)-1-(3-methyloxetan-3-yl)-1H-1,3-benzodiazol-5-yl]pyridine-2-carboxamide] |
| ≤ 0.1 | COc1cc(-c2nc3cc(NC(=O)C4CC4)ccc3n2C2(C)COC2)c(F)c(O)c1O [Example 204, N-[2-(2-fluoro-3,4-dihydroxy-5-methoxyphenyl)-1-(3-methyloxetan-3-yl)-1H-1,3-benzodiazol-5-yl]cyclopropanecarboxamide] |
| ≤ 0.1 | COc1cc(-c2nc3ccc(C(=O)NC4CC(F)(F)C4)cc3n2C2(C)COC2)c(F)c(O)c1O [Example 205, N-(3,3-difluorocyclobutyl)-2-(2-fluoro-3,4-dihydroxy-5-methoxyphenyl)-1-(3-methyloxetan-3-yl)-1H-benzo[d]imidazole-6-carboxamide] |
| 0.1 to 1 | COc1cc(-c2nc3cc(NC(=O)c4cnoc4)ccc3n2C2(C)COC2)c(F)c(O)c1O [Example 206, N-(2-(2-fluoro-3,4-dihydroxy-5-methoxyphenyl)-1-(3-methyloxetan-3-yl)-1H-benzo[d]imidazol-5-yl)isoxazole-4-carboxamide] |
| ≤ 0.1 | COc1cc(-c2nc3ccc(NC(C)=O)cc3n2C2(C)COC2)c(F)c(O)c1O [Example 207, N-[2-(2-fluoro-3,4-dihydroxy-5-methoxyphenyl)-1-(3-methyloxetan-3-yl)-1H-1,3-benzodiazol-6-yl]acetamide] |
| 0.1 to 1 | COc1cc(-c2nc3c(NC(C)=O)cccc3n2C2(C)COC2)c(F)c(O)c1O [Example 209, N-[2-(2-fluoro-3,4-dihydroxy-5-methoxyphenyl)-1-(3-methyloxetan-3-yl)-1H-1,3-benzodiazol-4-yl]acetamide] |
